# Reference: patent US7923465B2, “Cannabinoid receptor ligands, pharmaceutical compositions containing them, and process for their preparation” (priority 2005, dated 2011)
# Read-outs that look alike come from different tables or passages of the source.
# Experiments:
# hCB1 [1] = molecular target: T1, hCB1 (Homo sapiens, UniProt P21554); assay: Agonism of CB1 receptors expressed in CHO cells, forskolin cAMP assay (Protocol IX.2); format: cell-based; design: expressed in transfected cells; host or cells: CHO (h-CB1/CHO, G418-selected); conditions: for hCB1 Agonism / activation at 10 µM: at 10 uM, h-CB1/CHO cells, cAMP; for activation at 10 µM: CHO
# T1 sequence (P21554 whole entry): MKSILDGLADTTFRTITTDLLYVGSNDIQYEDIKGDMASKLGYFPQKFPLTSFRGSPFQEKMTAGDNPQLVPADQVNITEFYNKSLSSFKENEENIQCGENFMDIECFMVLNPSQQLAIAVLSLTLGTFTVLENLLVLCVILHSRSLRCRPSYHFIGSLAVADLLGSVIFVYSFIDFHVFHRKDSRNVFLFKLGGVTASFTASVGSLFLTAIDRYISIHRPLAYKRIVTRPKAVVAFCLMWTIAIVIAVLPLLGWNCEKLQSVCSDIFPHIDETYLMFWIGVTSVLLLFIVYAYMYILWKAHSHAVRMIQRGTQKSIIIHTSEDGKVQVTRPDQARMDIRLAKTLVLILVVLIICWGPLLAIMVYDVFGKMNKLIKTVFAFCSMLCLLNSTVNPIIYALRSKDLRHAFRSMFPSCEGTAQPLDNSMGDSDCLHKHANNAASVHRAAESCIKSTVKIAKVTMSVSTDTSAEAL
# Protocol: (§1) IX. Assay for Determining Agonist and Antagonist Activity to CB1 and CB2 Receptors
# (§2) 2. Agonism of CB1/CB2 Receptors Expressed in CHO Cells
# (§3) h-CB1/CHO or h-CB2/CHO cells were grown in HAM's F12 DMEM medium (Sigma) with 10% FBS (Hyclone), 1% penicillin-streptomycin solution and 400 μg/ml of G418 (Sigma). 5000 cells were seeded per well in a 96 well plate and incubated for 24 hours at 37° C. in 5% CO2. On the day of assay, cells were washed with warm Krebs Buffer containing 0.1% fatty acid free (FAF) BSA (Sigma) and re-suspended in the same buffer containing 1 mM IBMX. […] At the end of incubation, cells were lysed using lysis reagent from the cAMP estimation kit and cAMP was quantitated by chemiluminescence method described in the manufacturer's instructions (DiscoveRX). EC50 values were calculated from dose response curves by nonlinear regression analysis using PRISM software.
# hCB1 [2] = molecular target: T1, hCB1; assay: Antagonism of CB1 receptors expressed in CHO cells, cAMP assay against CP 55,940 (Protocol IX.1); format: cell-based; design: expressed in transfected cells; host or cells: CHO (h-CB1/CHO, G418-selected); conditions: for inhibition at 10 µM: read-out: hCB1 Antagonism
# Protocol: as §1
# (§4) 1. Antagonism of CB1/CB2 Receptors Expressed in CHO Cells.
# as §3, with “warm Krebs buffer containing 0.1%” for “warm Krebs Buffer containing 0.1%”, “quantitated by the chemiluminescence method” for “quantitated by chemiluminescence method”
# hCB2 [3] = molecular target: T2, hCB2 (Homo sapiens, UniProt P34972); assay: Agonism of CB2 receptors expressed in CHO cells, forskolin cAMP assay (Protocol IX.2); format: cell-based; design: expressed in transfected cells; host or cells: CHO (h-CB2/CHO, G418-selected); conditions: cAMP
# T2 sequence (P34972 whole entry): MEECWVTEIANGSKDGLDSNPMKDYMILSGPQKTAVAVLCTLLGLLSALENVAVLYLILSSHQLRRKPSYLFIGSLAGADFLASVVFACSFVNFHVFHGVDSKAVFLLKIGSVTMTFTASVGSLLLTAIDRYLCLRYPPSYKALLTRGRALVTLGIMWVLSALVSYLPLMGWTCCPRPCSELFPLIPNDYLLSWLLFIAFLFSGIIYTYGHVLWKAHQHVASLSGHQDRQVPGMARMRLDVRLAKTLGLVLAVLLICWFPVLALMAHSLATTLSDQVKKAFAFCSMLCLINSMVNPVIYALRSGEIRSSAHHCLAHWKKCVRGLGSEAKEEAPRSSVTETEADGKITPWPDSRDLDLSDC
# Protocol: as §1, §2
# h-CB1/CHO or h-CB2/CHO cells were grown in HAM's F12 DMEM medium (Sigma) with 10% FBS (Hyclone), 1% penicillin-streptomycin solution and 400 μg/ml of G418 (Sigma). 5000 cells were seeded per well in a 96 well plate and incubated for 24 hours at 37° C. in 5% CO2. On the day of assay, cells were washed with warm Krebs Buffer containing 0.1% fatty acid free (FAF) BSA (Sigma) and re-suspended in the same buffer containing 1 mM IBMX. Test compound or CP 55,940 as a reference compound (30 nM final concentration for CB1 testing and 10 μM of the same for CB2 testing) diluted in FFB+IBMX+Krebs buffer was added to the cells followed by forskolin addition (10 uM final concentration) and incubated for 30 minutes at room temperature. At the end of incubation, cells were lysed using lysis reagent from the cAMP estimation kit and cAMP was quantitated by chemiluminescence method described in the manufacturer's instructions (DiscoveRX). EC50 values were calculated from dose response curves by nonlinear regression analysis using PRISM software.
# hCB2 [4] = molecular target: T2, hCB2; assay: Antagonism of CB2 receptors expressed in CHO cells, cAMP assay against CP 55,940 (Protocol IX.1); format: cell-based; design: expressed in transfected cells; host or cells: CHO (h-CB2/CHO, G418-selected); conditions: h-CB2/CHO cells, vs 10 nM CP 55,940; for inhibition at 10 µM: CHO
# Protocol: as §1, §4
# h-CB1/CHO or h-CB2/CHO cells were grown in HAM's F12 DMEM medium (Sigma) with 10% FBS (Hyclone), 1% penicillin-streptomycin solution and 400 μg/ml of G418 (Sigma). 5000 cells were seeded per well in a 96 well plate and incubated for 24 hours at 37° C. in 5% CO2. On the day of assay, cells were washed with warm Krebs buffer containing 0.1% fatty acid free (FAF) BSA (Sigma) and re-suspended in the same buffer containing 1 mM IBMX. Test antagonist or reference compound (AM 251 (1-(2,4-dichlorophenyl)-5-(4-iodophenyl)-4-methyl-N-(1-piperidyl)pyrazole-3-carboxamide) for CB1 and SR144528 for CB2) diluted in FAFBSA+IBMX+Krebs buffer was added to the cells and incubated for 10 minutes at room temperature. CP 55,940 (30 nM final concentration for CB1 testing and 10 nM of the same for CB2 testing) was added to cells followed by forskolin (10 μM final concentration) and incubated for 30 minutes at room temperature. At the end of incubation, cells were lysed using lysis reagent from the cAMP estimation kit and cAMP was quantitated by the chemiluminescence method described in the manufacturer's instructions (DiscoveRX). EC50 values were calculated from dose response curves by nonlinear regression analysis using PRISM software.
# hCB2 [5] = molecular target: T2, hCB2; assay: In vitro binding assay using hCB2-CHO membranes, [3H]-CP-55,940 displacement (Protocol IV); design: expressed in transfected cells; host or cells: CHO (hCB2-CHO, generated in-house); conditions: 1 h, read-out: % Displacement Protocol IV
# In short: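 Compounds were tested at a single 300 nM final concentration for displacing 0.75 nM [3H]-CP-55,940 from hCB2-CHO membranes (1 h, 30 °C, 50 mM Tris pH 7.4, 5 mM MgCl2, 1 mM EDTA, 0.1% BSA). Filter-bound radioactivity was counted, with 0.5 μM unlabelled CP-55,940 for nonspecific binding; results are % displacement.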
# CB1 = CB1 (Rattus norvegicus, UniProt P20272); assay: Rat CB1 receptor binding using brain membrane, [3H]SR141716A displacement (Protocol I); design: CB1 receptor present in a rat brain membrane preparation; from tissue; host or cells: rat brain membrane; inhibition: dose or concentration left out as unconfirmed; conditions: 1 h; rat brain membrane, [3H]SR141716A displacement; read-out: % Displacement Protocol I
# Sequence of CB1 (P20272 whole entry): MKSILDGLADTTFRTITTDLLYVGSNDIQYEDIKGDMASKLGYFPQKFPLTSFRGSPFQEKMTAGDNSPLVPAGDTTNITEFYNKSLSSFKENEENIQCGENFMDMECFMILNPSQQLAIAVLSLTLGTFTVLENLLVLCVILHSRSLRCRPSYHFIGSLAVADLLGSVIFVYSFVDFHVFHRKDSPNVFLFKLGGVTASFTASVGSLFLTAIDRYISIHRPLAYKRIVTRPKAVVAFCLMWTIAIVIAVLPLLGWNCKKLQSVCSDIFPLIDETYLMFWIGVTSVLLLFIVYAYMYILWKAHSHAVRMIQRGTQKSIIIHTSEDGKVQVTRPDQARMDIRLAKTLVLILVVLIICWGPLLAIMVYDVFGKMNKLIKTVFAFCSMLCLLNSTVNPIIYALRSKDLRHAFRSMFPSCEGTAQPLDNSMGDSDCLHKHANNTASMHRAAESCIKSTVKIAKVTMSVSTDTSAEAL
# [6] = at 10 uM, h-CB1/CHO cells, cAMP, vs 30 nM CP 55,940
# [7] = h-CB2/CHO cells, read-out: hCB2 Agonism IC50
# [8] = hCB2 Agonism IC50, h-CB2/CHO cells
# [9] = hCB2-CHO membranes, [3H]-CP-55,940 displacement
SMILES,hCB1 Agonism (hCB1 [1]) [% at],inhibition at 10 µM (hCB1 [2]; [6]) [%],IC50 (hCB2 [3]; [7]) [nM],inhibition at 10 µM (hCB2 [4]) [%],hCB1 Antagonism (hCB1 [2]; [6]) [% at 10 uM],hCB2 Antagonism (hCB2 [4]; at 10 uM) [% at],melting point [°C],activation at 10 µM (hCB1 [1]) [%],inhibition at 0.3 µM (hCB2 [5]) [%],IC50 (hCB2 [3]; [8]) [nM],inhibition at 0.3 µM (hCB2 [5]; [9]) [%],inhibition (CB1) [%],IC50 (hCB1 [1]) [nM],inhibition at 10 µM (hCB1 [2]; CHO) [%]
"CC(C)(C)NC(=O)c1nn(-c2ccc(F)cc2F)c2c1[C@@H]1CC[C@H]2C1 (single isomer, unassigned) [Example 304]",55,0,0.93,51.6,,,,,,,,,,
"CC(C)(C)NC(=O)c1nn(-c2ccc(F)cc2F)c2c1[C@@H]1CC[C@H]2C1 (single isomer, unassigned) [Example 305]",20,,2.16,,0,37.45,,,,,,,,
"O=C(Nc1ccc(F)cc1F)c1nn(-c2ccc(Cl)cc2Cl)c2c1C1CCC2C1 (centres unmarked) [Example 244, N(3)-(2,4-Difluorophenyl)-1-(2,4-dichlorophenyl)-4,5,6,7-tetrahydro-1H-4,7-methano-indazole-3-carboxamide]",,61.5,5.66,25.3,,,152 to 155,0,88.3,,,,,
"O=C(NCc1ccccc1F)c1nn(-c2ccc(Cl)cc2Cl)c2c1C1CCC2C1 (centres unmarked) [Example 245, N(3)-(2-Fluorobenzyl)-1-(2,4-dichlorophenyl)-4,5,6,7-tetrahydro-1H-4,7-methano-indazole-3-carboxamide]",,70.7,,32.9,,,54,0,,50.4,84.8,,,
"O=C(NCc1ccc(F)cc1F)c1nn(-c2ccc(Cl)cc2Cl)c2c1C1CCC2C1 (centres unmarked) [Example 247, N(3)-(2,4-Difluorobenzyl)-1-(2,4-dichlorophenyl)-4,5,6,7-tetrahydro-1H-4,7-methano-indazole-3-carboxamide]",,75.3,,29.2,,,73 to 76,0,,5.44,79.1,,,
"O=C(NNc1cccc(F)c1)c1nn(-c2ccc(Cl)cc2Cl)c2c1C1CCC2C1 (centres unmarked) [Example 266, N(3)-[(3-Fluorophenyl)amino]-1-(2,4-dichlorophenyl)-4,5,6,7-tetrahydro-1H-4,7-methano-indazole-3-carboxamide]",,,,27.7,,,190,12.1,,14,62,34.5,,
"O=C(NNc1ccccc1F)c1nn(-c2ccc(F)cc2F)c2c1C1CCC2C1 (centres unmarked) [Example 288, N(3)-[(2-Fluorophenyl)amino]-1-(2,4-difluorophenyl)-4,5,6,7-tetrahydro-1H-4,7-methano-indazole-3-carboxamide]",,55.3,,17.1,,,172 to 175,0,,4.76,60.8,,,
"O=C(NC(CO)c1ccccc1)c1nn(-c2ccc(F)cc2F)c2c1C1CCC2C1 [Example 302, N5-[(1S)-2-Hydro-1-phenylethyl]-3-(2,4-difluorophenyl)-3,4-diazatricyclo[5.2.1.0.^2,6]deca-2(6),4-diene-5-carboxamide]",,,9.75,0,,,91,19,71.8,,,,,
"CC(C)(C)NC(=O)c1nn(-c2ccc(F)cc2F)c2c1C1CCC2C1 (centres unmarked) [Example 303, N(3)-(tert-Butyl)-1-(2,4-difluorophenyl)-4,5,6,7-tetrahydro-1H-4,7-methano-indazole-3-carboxamide]",,,0.61,17.6,,,,,89.7,,,,10900,0
"O=C(NCC1CC1)c1nn(-c2ccc(F)cc2F)c2c1C1CCC2C1 (centres unmarked) [Example 314, N(3)-Cyclopropanmethyl-1-(2,4-difluorophenyl)-4,5,6,7-tetrahydro-1H-4,7-methano-indazole-3-carboxamide]",,0,8.52,22.9,,,113 to 115,3.41,64.9,,,,,
"O=C(NC1CCC1)c1nn(-c2ccc(F)cc2F)c2c1C1CCC2C1 (centres unmarked) [Example 315, N(3)-Cyclobutyl-1-(2,4-difluorophenyl)-4,5,6,7-tetrahydro-1H-4,7-methano-indazole-3-carboxamide]",,1,0.16 to 1.76,16.1,,,123 to 125,12.6,64.2,,,,,
"O=C(N[C@@H](CO)c1ccccc1)c1nn(-c2ccc(F)cc2F)c2c1C1CCC2C1 (stereo partly drawn) [Example 320, N(3)-[(1R)-2-Hydroxy-1-phenylethyl]-1-(2,4-difluorophenyl)-4,5,6,7-tetrahydro-1H-4,7-methano-indazole-3-carboxamide]",,0,0.76 to 1.25,22.5,,,,29.1,67.8,,,,,
"CC(C)(C)NC(=O)c1nn(-c2ccc(F)cc2)c2c1C1CCC2C1 (centres unmarked) [Example 323, N(3)-(tert-Butyl)-1-(4-fluorophenyl)-4,5,6,7-tetrahydro-1H-4,7-methano-indazole-3-carboxamide]",,0,14.1,18,,,131 to 133,0,82.5,,,,,
